Measurements from publication PMC9216541, “Design and synthesis of Nrf2-derived hydrocarbon stapled peptides for the disruption of protein-DNA-interactions” (PLoS ONE, 2022).
Blank lines part the entries; values can stand above or below the compound they belong to. Where a SMILES comes first, the peptide text is derived from it. Bridges are numbered along the chain shown (N, C = ends). [ ]: non-standard residue; d: D form. The star is where a group is joined. FITC = O=C1OC2(c3ccc(O)cc3Oc3cc(O)ccc32)c2ccc(NC(=S)*)cc21; R8 = C=CCCCCCC[C@@](C)(N)C(=O)O; R5 = C=CCCC[C@@](C)(N)C(=O)O; S5 = C=CCCC[C@](C)(N)C(=O)O; GABA = NCCCC(=O)O

Key:
[1] = tested on: living HeLa cells; experiment: Cell permeability in living HeLa cells, fluorescence microscopy; assay type: cell-based
Experimental: (§1) HeLa cells (ATCC CCL-2) were cultured in Dulbecco’s Modified Eagle Medium (DMEM) supplemented with 10% FBS (Pan Biotech), 2 mM L-glutamine, 100 U/ml penicillin and 100 μg/ml streptomycin at 37°C and 5% CO2.
To investigate the cell permeability of peptide 4, living HeLa cells were washed twice and incubated for 5 min with DPBS + Mg/Ca, ([…]) in a CO2 incubator. Cells were subsequently incubated in the presence of 10 μM of peptide 4 in DPBS + Mg/Cl for 5 min, followed by two washes with DPBS + Mg/Cl and final addition of HEPES-buffered imaging medium containing 0.5 μM propidium iodide.
(§2) Imaging was performed using an Olympus IX81 microscope with 20x and 60x UPLSAPO objectives and standard fluorescence filter sets.

[2] = CD measurements, helical fraction from ellipticity at 222 nm; assay type: physicochemical; conditions: peptide 20 μM in water, calculated from [θ]obs at 222 nm by established methods (ref 30)
Experimental: CD measurements were carried out on a JASCO J-715 spectrometer using water as the solvent for all measurements. The peptides were solved in water to a concentration of 20 μM. The linear peptide 5 was used as a control compound. The helical fraction for peptides 1–5 was calculated from the observed ellipticity [θ]obs at 222 nm using established methods.

[3] = target: 6FAM-labeled MARE23 sequence (Nrf2:sMaf binding dsDNA); experiment: Fluorescence polarization assay with 6FAM-labeled MARE23 dsDNA; conditions: FP, 10 nM 6FAM-MARE23 dsDNA, peptide 25 μM - 6.1 nM, 50 mM Tris/HCl pH 7.5, 100 mM NaCl, 60 min at room temperature; quadruplicates, three independent replicates, four parameter logistic fit
Experimental: For DNA hybridization, equimolar amounts of fluorescein- or 6FAM-labeled sense and unlabeled antisense oligonucleotides were mixed in 1X annealing buffer (10 mM Tris pH 7.5, 100 mM NaCl, 1 mM EDTA) to yield a final concentration of 20 μM of dsDNA. Subsequently, mixtures were heated to 95°C for 10 min followed by cooling to 20°C at a rate of 1°C per minute. Afterwards, dsDNA probes were diluted to 10 nm in FP assay buffer (50 mM Tris/HCl pH 7.5, 100 mM NaCl, 2 mM MgCl2, 0.5 mM EDTA, 10 μg/mL BSA, 0.1 mM DTT, 0.01% Tween-20) and mixed with serial dilutions of peptides 1–6 (25 μM—6.1 nm), that were generated with the Echo 520 liquid handler (Labcyte Inc.), in a total volume of 10.2 μL per well in black 384-well small volume microplates (Greiner Bio-One). The microplates were shaken at 1500 rpm for 30 s, centrifuged at 200 x g for 60 s and subsequently incubated for 60 min in a humidified, dark chamber at room temperature. Finally, the fluorescence polarization was analyzed on an Infinite® M1000 microplate reader (Tecan) using the appropriate settings for fluorescein/6FAM, i.e. an excitation wavelength of 470 ± 2.5 nm and an emission wavelength of 520 ± 7.5 nm.
Each concentration was analyzed in quadruplicates and resulting mean fluorescence polarization and standard deviation was fit to a four parameter logistic model with Origin (OriginLab, Northampton, MA) using the following equation: y=A1−A2/1+x/x0^p+A2
Each experiment was performed in three independent replicates.
Figure S5. Fluorescence polarization binding studies of stapled peptides 1-6 towards target DNA sequence MARE23 (5’-[6FAM][…]-3’ and 5’-[…]-3’) (A, C) and control DNA sequence MARE23_scrambled (5’-[6FAM][…]-3’ and 5’-GAGTAA-TAGCTATGACGATATTCCG-3’) (B and D, respectively). The obtained polarization values were either baseline-corrected (A, B) or corrected for the changes in fluorescence intensity in the free/bound state of the fluorescently labeled dsDNA probes (C, D).^[1] The resulting dissociation constants are listed in the inset tables in the respective panels. […]

[4] = tested on: peptide 6 (scrambled); experiment: fluorescence polarization; conditions: FP: 50 mM Tris/HCl pH 7.5, 100 mM NaCl, 2 mM MgCl2, 0.5 mM EDTA, 10 ug/mL BSA, 0.1 mM DTT, 0.01% Tween-20, 10 nM DNA, 60 min RT; EMSA: 10 mM Tris pH 7.5, 100 mM
[5] = target: peptide 1 (stapled Nrf2-derived) (UniProt Q16236); experiment: fluorescence polarization; conditions: FP: 50 mM Tris/HCl pH 7.5, 100 mM NaCl, 2 mM MgCl2, 0.5 mM EDTA, 10 ug/mL BSA, 0.1 mM DTT, 0.01% Tween-20, 10 nM DNA, 60 min RT; EMSA: 10 mM Tris pH 7.5, 100 mM
[6] = target: peptide 2 (stapled Nrf2-derived) (UniProt Q16236); experiment: fluorescence polarization; conditions: FP: 50 mM Tris/HCl pH 7.5, 100 mM NaCl, 2 mM MgCl2, 0.5 mM EDTA, 10 ug/mL BSA, 0.1 mM DTT, 0.01% Tween-20, 10 nM DNA, 60 min RT; EMSA: 10 mM Tris pH 7.5, 100 mM
[7] = target: peptide 5 (linear Nrf2-derived) (UniProt Q16236); experiment: fluorescence polarization; conditions: FP: 50 mM Tris/HCl pH 7.5, 100 mM NaCl, 2 mM MgCl2, 0.5 mM EDTA, 10 ug/mL BSA, 0.1 mM DTT, 0.01% Tween-20, 10 nM DNA, 60 min RT; EMSA: 10 mM Tris pH 7.5, 100 mM
[8] = target: peptide 4 (stapled Nrf2-derived) (UniProt Q16236); experiment: fluorescence polarization; conditions: FP: 50 mM Tris/HCl pH 7.5, 100 mM NaCl, 2 mM MgCl2, 0.5 mM EDTA, 10 ug/mL BSA, 0.1 mM DTT, 0.01% Tween-20, 10 nM DNA, 60 min RT; EMSA: 10 mM Tris pH 7.5, 100 mM
[9] = target: peptide 3 (stapled Nrf2-derived) (UniProt Q16236); experiment: fluorescence polarization; conditions: FP: 50 mM Tris/HCl pH 7.5, 100 mM NaCl, 2 mM MgCl2, 0.5 mM EDTA, 10 ug/mL BSA, 0.1 mM DTT, 0.01% Tween-20, 10 nM DNA, 60 min RT; EMSA: 10 mM Tris pH 7.5, 100 mM
[10] = tested on: dsDNA probe (MARE23, MARE23_scrambled, randomized sequence); experiment: Electrophoretic mobility shift assay; assay type: binding; conditions: 1 pmol dsDNA probe with excess of peptide, 30 min at room temperature, native 15% TBE polyacrylamide gel
Experimental: DNA hybridization was performed as described above. Afterwards, 1 pmol of the dsDNA probe was incubated with the respective excess of peptide in 1X assay buffer (10 mM Tris pH 7.5, 100 mM KCl, 2 mM MgCl2, 0.5 mM EDTA, 10 μg/mL BSA, 0.1 mM DTT, 2.5% glycerol) in a final volume of 10 μL and incubated for 30 min at room temperature. Prior to gel electrophoresis, samples were mixed with 2 μL of 6X loading buffer (60 mM Tris pH 7.5, 15% Ficoll 400) and the reaction mixtures were then loaded onto hand-cast, native 15% TBE polyacrylamide gels. Separation was performed for 45 min at a current of 20 mA per gel in a cold room at 4°C and the gels were analyzed on a Typhoon FLA 9500 laser scanner (GE Healthcare) using the 473 nm laser for excitation and a 510 nm long-pass filter (LPB (510LP)) for emission of fluorescein and FAM, respectively.
[picture] Figure S6. Electrophoretic mobility shift assays of peptides 4 and 5 with MARE23 (5’-[6FAM][…]-3’ and 5’-[…]-TTCCG-3’).
Figure S7. Electrophoretic mobility shift assays of peptides 4 and 5 with MARE23_scrambled (5’-[6FAM][…]-3’ and 5’-[…]-TTCCG-3’).
Figure S8. Electrophoretic mobility shift assays of peptides 4 and 5 with DNA with a randomized sequence (5’-[6FAM][…]-3’ and 5’-GAG-[…]-3’).

[11] = tested on: cellular DNA in fixed, permeabilized HeLa cells; experiment: Incubation with fixed, permeabilized HeLa cells, wide-field fluorescence microscopy; assay type: cell-based; conditions: FITC-labeled peptide
Experimental: as §1
For fixing and permeabilization, HeLa cells were incubated with pre-warmed 4% formaldehyde for 20 min at 37°C, followed by permeabilization with 0.25% Triton-X 100 for 20 min at room temperature. For the evaluation of the effect of proteases, cOmplete protease inhibitor mix (1X) 500 μl was added to the fixed cells for 30 min. Peptides were incubated at 1 μM for 3 h in the presence of the protease inhibitor mix, followed by 3 min incubation with 1 μM of the nucleic acid marker DAPI, then extensively washed with DPBS and subjected to wide-field imaging.
as §2

Compound: CC[C@H](C)[C@H](NC(=O)CCCNC(=S)Nc1ccc2c(c1)C(=O)OC21c2ccc(O)cc2Oc2cc(O)ccc21)C(=O)N[C@@H](CCCNC(=N)N)C(=O)N[C@@H](CCCNC(=N)N)C(=O)N[C@@H](CCCNC(=N)N)C(=O)N[C@]1(C)CCCCCCC=CCCC[C@@](C)(C(=O)N[C@@H](CC(N)=O)C(=O)N[C@@H](CS)C(=O)N[C@@H](CCCNC(=N)N)C(=O)N[C@@H](CCCCN)C(=O)N[C@@H](CCCNC(=N)N)C(=O)N[C@@H](CCCCN)C(N)=O)NC(=O)[C@H](C)NC(=O)[C@H](C)NC(=O)[C@H](C(C)C)NC(=O)[C@H](CCCCN)NC(=O)[C@H](CC(N)=O)NC(=O)[C@H](CCCCN)NC1=O [FITC-4] ({FITC-GABA}-IRRR[R8]KNKVAA[S5]NCRKRK-NH2; staple 5-12)
membrane permeability in living cells ([1]; 10 μM peptide in DPBS + Mg/Ca, 5 min, serum-free, washed, FITC fluorescence microscopy): high membrane permeability in living cells | viability / membrane integrity of peptide-containing cells (propidium iodide) ([1]; 10 μM peptide, 0.5 μM propidium iodide in imaging medium): majority of peptide-containing cells were alive

Helicity (calculated) / α-helical content [2]: 20% | Kd [3]: 1600 ± 40 nM
Compound: IRRRS5KNKS5AAQNCRKRK (sidechain bridge or staple) [compound 1, Nrf2-derived i,i+4 hydrocarbon stapled peptide (505/509), N-terminally acetylated, C-terminal amide]

Helicity (calculated) / α-helical content [2]: 36% | Kd [3]: 1500 ± 200 nM
Compound: CC[C@H](C)[C@H](NC(C)=O)C(=O)N[C@@H](CCCNC(=N)N)C(=O)N[C@@H](CCCNC(=N)N)C(=O)N[C@@H](CCCNC(=N)N)C(=O)NCC(=O)N[C@@H](CCCCN)C(=O)N[C@@H](CC(N)=O)C(=O)N[C@@H](CCCCN)C(=O)N[C@]1(C)CCCC=CCCC[C@@](C)(C(=O)N[C@@H](CC(N)=O)C(=O)N[C@@H](CS)C(=O)N[C@@H](CCCNC(=N)N)C(=O)N[C@@H](CCCCN)C(=O)N[C@@H](CCCNC(=N)N)C(=O)N[C@@H](CCCCN)C(N)=O)NC(=O)[C@H](C)NC(=O)[C@H](C)NC1=O [compound 3] (Ac-IRRRGKNK[R5]AA[S5]NCRKRK-NH2; staple 9-12)

Compound: CGGAATCAATGACTCATTGTTACTC (double strand) [MARE23]
Kd [4]: 8100 nM | Kd [5]: 1600 nM | Kd [6]: 3900 nM | Kd [7]: 7900 nM | Kd [8]: 1200 nM | Kd [9]: 1500 nM

Helicity (calculated) / α-helical content [2]: 18% | Kd [3]: 1200 ± 300 nM
Compound: CC[C@H](C)[C@H](NC(C)=O)C(=O)N[C@@H](CCCNC(=N)N)C(=O)N[C@@H](CCCNC(=N)N)C(=O)N[C@@H](CCCNC(=N)N)C(=O)N[C@]1(C)CCCCCCC=CCCC[C@@](C)(C(=O)N[C@@H](CC(N)=O)C(=O)N[C@@H](CS)C(=O)N[C@@H](CCCNC(=N)N)C(=O)N[C@@H](CCCCN)C(=O)N[C@@H](CCCNC(=N)N)C(=O)N[C@@H](CCCCN)C(N)=O)NC(=O)[C@H](C)NC(=O)[C@H](C)NC(=O)[C@H](C(C)C)NC(=O)[C@H](CCCCN)NC(=O)[C@H](CC(N)=O)NC(=O)[C@H](CCCCN)NC1=O [compound 4] (Ac-IRRR[R8]KNKVAA[S5]NCRKRK-NH2; staple 5-12)
mobility shift of DNA [10]: induce a mobility shift of DNA at a lower concentration than the unstapled peptide 5

Compound: IRRRGKNKVAAQNCRKRK [FITC-5, linear peptide 5 with N-terminal FITC-GABA- label]
enrichment in the nucleus ([11]; fixed (4% formaldehyde) and permeabilized (0.25% Triton-X 100) HeLa cells, DAPI co-stain): no enrichment in the nucleus could be observed | amount of peptide detectable in cells ([11]; fixed and permeabilized HeLa cells, identical exposure times): only small amounts
